{"source": "patent US20240307487A1", "about": "(priority 2020, published 2024)", "key": {"SARS-CoV-2 [1]": {"test_system": "SARS-CoV-2"}, "[2]": {"test_system": "endosomal acidification in MDCK cells", "assay_type": "cell-based, canine"}, "A(H1N1)pdm09 virus [3]": {"test_system": "A(H1N1)pdm09 virus", "assay_type": "cell-based"}, "MERS-CoV [4]": {"test_system": "MERS-CoV"}, "rhinovirus [5]": {"test_system": "rhinovirus"}, "rhinovirus [6]": {"test_system": "rhinovirus", "assay_type": "binding", "settings": "peptide coated on ELISA plate, bound virus by RT-qPCR"}, "MERS-CoV S protein": {"target": "MERS-CoV S protein (Middle East respiratory syndrome-related coronavirus, UniProt K9N5Q8)", "sequence (K9N5Q8 18-1353 limits assumed)": "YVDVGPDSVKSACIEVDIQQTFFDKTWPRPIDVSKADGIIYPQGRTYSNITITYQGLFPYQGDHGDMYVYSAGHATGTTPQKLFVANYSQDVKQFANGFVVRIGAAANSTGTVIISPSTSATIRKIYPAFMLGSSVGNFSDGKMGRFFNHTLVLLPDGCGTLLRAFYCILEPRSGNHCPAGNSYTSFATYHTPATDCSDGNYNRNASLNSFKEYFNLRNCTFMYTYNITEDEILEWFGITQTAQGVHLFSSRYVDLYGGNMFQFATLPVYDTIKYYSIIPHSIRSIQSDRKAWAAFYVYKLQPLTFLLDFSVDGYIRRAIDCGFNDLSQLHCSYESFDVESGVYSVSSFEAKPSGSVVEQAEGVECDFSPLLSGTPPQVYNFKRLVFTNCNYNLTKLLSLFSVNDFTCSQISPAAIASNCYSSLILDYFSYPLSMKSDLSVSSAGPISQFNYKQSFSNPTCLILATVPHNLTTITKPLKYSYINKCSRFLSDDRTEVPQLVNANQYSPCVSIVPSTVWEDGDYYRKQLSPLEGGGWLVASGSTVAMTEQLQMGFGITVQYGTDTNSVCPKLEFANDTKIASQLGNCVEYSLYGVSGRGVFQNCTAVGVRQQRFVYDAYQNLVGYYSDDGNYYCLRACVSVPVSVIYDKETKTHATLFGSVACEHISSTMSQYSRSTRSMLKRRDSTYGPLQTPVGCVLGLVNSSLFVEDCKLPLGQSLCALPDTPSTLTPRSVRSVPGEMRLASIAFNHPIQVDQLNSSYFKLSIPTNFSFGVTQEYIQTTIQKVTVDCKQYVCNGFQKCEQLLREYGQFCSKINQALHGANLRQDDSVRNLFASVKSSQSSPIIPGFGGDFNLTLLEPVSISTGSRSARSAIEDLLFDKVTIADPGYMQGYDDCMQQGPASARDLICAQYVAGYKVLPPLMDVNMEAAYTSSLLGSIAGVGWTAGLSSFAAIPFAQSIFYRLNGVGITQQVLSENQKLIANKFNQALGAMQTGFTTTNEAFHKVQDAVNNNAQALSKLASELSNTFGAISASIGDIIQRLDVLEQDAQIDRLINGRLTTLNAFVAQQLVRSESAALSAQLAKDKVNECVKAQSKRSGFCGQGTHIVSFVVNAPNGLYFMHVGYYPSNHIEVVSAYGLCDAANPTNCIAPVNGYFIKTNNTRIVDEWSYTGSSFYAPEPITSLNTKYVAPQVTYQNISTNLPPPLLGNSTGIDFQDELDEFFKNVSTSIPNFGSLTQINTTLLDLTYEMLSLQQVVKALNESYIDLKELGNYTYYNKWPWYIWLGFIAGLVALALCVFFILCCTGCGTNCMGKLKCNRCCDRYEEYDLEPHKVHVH"}, "A(H7N9) virus [7]": {"test_system": "A(H7N9) virus", "assay_type": "binding"}, "H1N1 HA1 protein": {"target": "H1N1 HA1 protein (Influenza A virus, UniProt C3W5S1)", "sequence (C3W5S1 18-344 limits assumed)": "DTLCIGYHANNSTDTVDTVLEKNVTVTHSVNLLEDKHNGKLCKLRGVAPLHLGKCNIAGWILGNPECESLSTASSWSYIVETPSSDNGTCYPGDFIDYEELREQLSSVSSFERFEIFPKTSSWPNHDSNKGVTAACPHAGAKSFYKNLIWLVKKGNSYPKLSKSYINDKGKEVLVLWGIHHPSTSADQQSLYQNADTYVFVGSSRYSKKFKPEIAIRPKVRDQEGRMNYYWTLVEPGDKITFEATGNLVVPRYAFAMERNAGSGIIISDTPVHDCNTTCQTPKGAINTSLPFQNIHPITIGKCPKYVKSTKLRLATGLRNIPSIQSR"}, "parainfluenza 3 (Para-3)": {"test_system": "parainfluenza 3 (Para-3)", "assay_type": "cell-based", "settings": "24 h post-infection"}, "A(H1N1)pdm09 virus [8]": {"test_system": "A(H1N1)pdm09 virus", "assay_type": "binding"}, "SARS-CoV-2 [9]": {"test_system": "SARS-CoV-2", "assay_type": "binding"}, "[10]": {"test_system": "virus-host endosomal acidification", "assay_type": "cell-based"}, "in vitro [11]": {"experiment": "in vitro", "settings": "human"}, "SARS-CoV [12]": {"test_system": "SARS-CoV", "assay_type": "binding"}, "in vitro [13]": {"experiment": "in vitro", "settings": "African green monkey"}, "rhinovirus [14]": {"test_system": "rhinovirus", "remark": "listed apart in the source"}, "MERS-CoV [15]": {"test_system": "MERS-CoV", "assay_type": "binding"}, "A(H7N9) virus [16]": {"test_system": "A(H7N9) virus"}, "in vitro [17]": {"experiment": "in vitro", "settings": "dog"}, "SARS-CoV-2 [18]": {"test_system": "SARS-CoV-2", "experiment": "microbe, parasite or virus in culture", "assay_type": "cell-based"}, "[19]": {"settings": "in vivo; cited from earlier work"}, "[20]": {"test_system": "spike-ACE2 mediated cell fusion", "assay_type": "cell-based, human"}, "SARS-CoV-2 [21]": {"test_system": "SARS-CoV-2", "settings": "cited from earlier work"}, "SARS-CoV-2 [22]": {"test_system": "SARS-CoV-2", "settings": "cited from earlier work", "remark": "listed apart in the source"}, "SARS-CoV-2 [23]": {"test_system": "SARS-CoV-2", "parameters": "species or system hamsters", "settings": "in vivo"}, "SARS-CoV [24]": {"test_system": "SARS-CoV", "parameters": "species or system mice", "settings": "in vivo"}, "SARS-CoV [25]": {"test_system": "SARS-CoV", "assay_type": "cell-based"}, "SARS-CoV-2 [26]": {"test_system": "SARS-CoV-2", "assay_type": "cell-based"}}, "note": "Where a name gives a salt, the structure may show the parent alone. Read-outs that look alike come from different tables or passages of the source. Where a SMILES comes first, the peptide text is derived from it.", "data": [{"compound": "CC[C@H](C)[C@H](NC(=O)[C@H](C)NC(=O)CNC(=O)[C@@H](N)CC(N)=O)C(=O)N[C@@H](CS)C(=O)N[C@@H](Cc1c[nH]c2ccccc12)C(=O)NCC(=O)N1CCC[C@H]1C(=O)N[C@@H](CS)C(=O)N1CCC[C@H]1C(=O)N[C@H](C(=O)N[C@@H](C)C(=O)N[C@@H](Cc1ccccc1)C(=O)N[C@@H](CCCNC(=N)N)C(=O)N[C@@H](CCC(N)=O)C(=O)N[C@H](C(=O)NCC(=O)N[C@@H](CC(N)=O)C(=O)N[C@@H](CS)C(=O)NCC(=O)N[C@@H](Cc1c[nH]cn1)C(=O)N[C@@H](Cc1ccccc1)C(=O)N[C@@H](CCCCN)C(=O)N[C@H](C(=O)N[C@@H](CCCNC(=N)N)C(=O)N[C@@H](CS)C(=O)N[C@@H](CS)C(=O)N[C@@H](CCCCN)C(=O)N[C@H](C(=O)N[C@@H](CCCNC(=N)N)C(=O)O)[C@@H](C)CC)C(C)C)[C@@H](C)CC)[C@@H](C)O", "note": "[P9, reference compound]", "values": [{"measurement": "IC50 against SARS-CoV-2", "setting": "SARS-CoV-2 [1]", "value": 2.4, "unit": "µg/mL"}, {"measurement": "IC50 against parainfluenza virus 3", "setting": "parainfluenza virus 3", "value": "> 25.0", "unit": "µg/mL"}]}, {"compound": "CC[C@H](C)[C@H](NC(=O)[C@H](C)NC(=O)CNC(=O)[C@@H](N)CC(N)=O)C(=O)N[C@@H](CS)C(=O)N[C@@H](Cc1c[nH]c2ccccc12)C(=O)NCC(=O)N1CCC[C@H]1C(=O)N[C@@H](CS)C(=O)N1CCC[C@H]1C(=O)N[C@H](C(=O)N[C@@H](C)C(=O)N[C@@H](Cc1ccccc1)C(=O)N[C@@H](CCCNC(=N)N)C(=O)N[C@@H](CCC(N)=O)C(=O)N[C@H](C(=O)NCC(=O)N[C@@H](CC(N)=O)C(=O)N[C@@H](CS)C(=O)NCC(=O)N[C@@H](CCCNC(=N)N)C(=O)N[C@@H](Cc1ccccc1)C(=O)N[C@@H](CCCNC(=N)N)C(=O)N[C@H](C(=O)N[C@@H](CCCNC(=N)N)C(=O)N[C@@H](CS)C(=O)N[C@@H](CS)C(=O)N[C@@H](CCCNC(=N)N)C(=O)N[C@H](C(=O)N[C@@H](CCCNC(=N)N)C(=O)O)[C@@H](C)CC)C(C)C)[C@@H](C)CC)[C@@H](C)O", "note": "[P9R] (H-NGAICWGPCPTAFRQIGNCGRFRVRCCRIR-OH)", "values": [{"measurement": "inhibition of endosomal acidification (no-virus endosomes)", "setting": "[2]", "value": "could more significantly inhibit endosomal acidification"}, {"measurement": "inhibition against A(H1N1)pdm09 virus compared with P9", "setting": "A(H1N1)pdm09 virus [3]", "value": "significantly stronger inhibition"}, {"measurement": "inhibition against MERS-CoV compared with P9", "setting": "MERS-CoV [4]", "value": "significantly stronger inhibition"}, {"measurement": "inhibition against rhinovirus compared with P9", "setting": "rhinovirus [5]", "value": "significantly stronger inhibition"}, {"measurement": "binding to rhinovirus", "setting": "rhinovirus [6]", "value": "could also bind"}, {"measurement": "IC50 against SARS-CoV-2", "setting": "SARS-CoV-2 [1]", "value": 0.9, "unit": "µg/mL"}, {"measurement": "binding to viral proteins: MERS-CoV S protein", "setting": "MERS-CoV S protein", "value": "could also bind"}, {"measurement": "binding to A(H7N9) virus", "setting": "A(H7N9) virus [7]", "value": "could also bind"}, {"measurement": "binding to viral proteins: H1N1 HA1 protein", "setting": "H1N1 HA1 protein", "value": "could also bind"}, {"measurement": "parainfluenza 3 viral RNA in LLC-MK2 cells", "setting": "parainfluenza 3 (Para-3)", "value": "inhibits parainfluenza 3 in LLC-MK2 cells"}, {"measurement": "binding to A(H1N1)pdm09 virus", "setting": "A(H1N1)pdm09 virus [8]", "value": "could efficiently bind"}, {"measurement": "binding to SARS-CoV-2", "setting": "SARS-CoV-2 [9]", "value": "could efficiently bind"}, {"measurement": "inhibition of virus-host endosomal acidification", "setting": "[10]", "value": "could efficiently inhibit"}, {"measurement": "CC50 at 24 h", "setting": "in vitro [11]", "value": "> 300", "unit": "µg/mL"}, {"measurement": "binding to SARS-CoV", "setting": "SARS-CoV [12]", "value": "could also bind"}, {"measurement": "CC50 at 24 h", "setting": "in vitro [13]", "value": "> 300", "unit": "µg/mL"}, {"measurement": "inhibition of viral replication, rhinovirus", "setting": "rhinovirus [14]", "value": "> 20", "unit": "fold"}, {"measurement": "binding to MERS-CoV", "setting": "MERS-CoV [15]", "value": "could also bind"}, {"measurement": "inhibition against A(H7N9) virus compared with P9", "setting": "A(H7N9) virus [16]", "value": "significantly stronger inhibition"}, {"measurement": "CC50 at 24 h", "setting": "in vitro [17]", "value": "> 300", "unit": "µg/mL"}]}, {"compound": "CCOC(=O)c1c(CSc2ccccc2)n(C)c2cc(Br)c(O)c(CN(C)C)c12", "note": "[arbidol]", "values": [{"measurement": "IC50", "setting": "SARS-CoV-2 [18]; Severe acute respiratory syndrome coronavirus 2, Vero C1008, 24 h, read-out: normal IC50 of arbidol against SARS-CoV-2", "value": 3.6, "unit": "µg/mL"}, {"measurement": "peak serum concentration", "setting": "[19]", "value": "lower than 2 μg ml-1"}]}, {"compound": "CO/C1=C\\C(C)=C\\[C@@H](C)[C@@H](O)[C@@H](C)C/C(C)=C/C=C/[C@H](OC)[C@@H]([C@@H](C)[C@@H](O)[C@H](C)[C@@]2(O)C[C@@H](O)[C@H](C)[C@@H](C(C)C)O2)OC1=O", "note": "[bafilomycin A1, reference compound]", "values": [{"measurement": "inhibition of virus-host endosomal acidification", "setting": "[10]", "value": "could efficiently inhibit"}, {"measurement": "spike-ACE2 mediated cell membrane fusion", "setting": "[20]", "value": "could inhibit spike-ACE2 mediated cell membrane fusion"}]}, {"compound": "CN(C)C(=O)COC(=O)Cc1ccc(OC(=O)c2ccc(NC(=N)N)cc2)cc1", "note": "[camostat, Camostat mesylate]", "values": [{"measurement": "SARS-CoV-2 replication in Vero-E6 cells", "setting": "SARS-CoV-2 [21]", "value": "could not inhibit SARS-CoV-2 replication"}, {"measurement": "SARS-CoV-2 replication in Calu-3 cells", "setting": "SARS-CoV-2 [22]", "value": "could significantly inhibit SARS-CoV-2 replication in Calu-3 cells"}, {"measurement": "SARS-CoV-2 replication in hamster lungs", "setting": "SARS-CoV-2 [23]", "value": "could not significantly inhibit SARS-CoV-2 replication in hamsters"}, {"measurement": "SARS-CoV replication in mouse lungs", "setting": "SARS-CoV [24]", "value": "could not inhibit viral replication"}]}, {"compound": "CCN(CC)CCCC(C)Nc1ccnc2cc(Cl)ccc12", "note": "(stereo not shown) [chloroquine]", "values": [{"measurement": "SARS-CoV-2 replication in Calu-3 cells", "setting": "SARS-CoV-2 [22]", "value": "did not inhibit SARS-CoV-2 replication in Calu-3 cells"}, {"measurement": "enhancement of antiviral activity of arbidol against SARS-CoV", "setting": "SARS-CoV [25]", "value": "could significantly enhance the antiviral activity of arbidol"}, {"measurement": "SARS-CoV-2 replication in hamster lungs", "setting": "SARS-CoV-2 [23]", "value": "could not significantly inhibit SARS-CoV-2 replication in hamsters"}, {"measurement": "SARS-CoV-2 replication in Calu-3 cells", "setting": "SARS-CoV-2 [26]", "value": "not in Calu-3 cells"}, {"measurement": "SARS-CoV-2 replication in Vero-E6 cells", "setting": "SARS-CoV-2 [18]", "value": "could significantly inhibit SARS-CoV-2 replication in Vero-E6 cells"}, {"measurement": "enhancement of antiviral activity of arbidol against SARS-CoV-2", "setting": "SARS-CoV-2 [18]", "value": "could significantly enhance the antiviral activity of arbidol"}, {"measurement": "SARS-CoV replication in mouse lungs", "setting": "SARS-CoV [24]", "value": "could not inhibit SARS-CoV replication in mouse lungs"}]}]}
